Reference: patent publication US7605156B2, “Methods for the use of inhibitors of cytosolic phospholipase A2” (Wyeth, priority 2001, dated 2009)

Target: T1, cPLA2 (Homo sapiens, UniProt P47712)
T1 sequence (P47712 1-749): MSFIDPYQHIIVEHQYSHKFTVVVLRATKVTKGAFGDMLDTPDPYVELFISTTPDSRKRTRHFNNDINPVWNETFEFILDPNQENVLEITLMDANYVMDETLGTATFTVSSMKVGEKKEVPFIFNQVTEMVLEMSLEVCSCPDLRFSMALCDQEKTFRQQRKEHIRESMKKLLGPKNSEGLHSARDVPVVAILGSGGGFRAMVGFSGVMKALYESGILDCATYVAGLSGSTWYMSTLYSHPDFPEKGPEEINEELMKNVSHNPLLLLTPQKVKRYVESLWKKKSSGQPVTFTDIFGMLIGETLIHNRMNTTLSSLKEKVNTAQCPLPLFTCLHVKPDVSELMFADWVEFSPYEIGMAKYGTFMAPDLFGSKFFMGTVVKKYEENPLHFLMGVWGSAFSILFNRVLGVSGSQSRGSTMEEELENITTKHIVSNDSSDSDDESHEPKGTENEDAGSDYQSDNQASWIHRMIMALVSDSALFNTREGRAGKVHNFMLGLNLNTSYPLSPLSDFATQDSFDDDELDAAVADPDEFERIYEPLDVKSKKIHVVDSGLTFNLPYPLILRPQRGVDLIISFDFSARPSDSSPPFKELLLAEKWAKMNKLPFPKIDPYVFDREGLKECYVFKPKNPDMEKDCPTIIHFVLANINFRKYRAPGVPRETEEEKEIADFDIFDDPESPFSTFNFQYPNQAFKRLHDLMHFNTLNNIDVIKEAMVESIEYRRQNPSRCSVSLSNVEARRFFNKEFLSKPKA
Assay: Coumarine assay (hydrolysis of 7-hydroxycoumarinyl 6-heptenoate)
Assay type: biochemical
Details: 60 μM 7-hydroxycoumarinyl 6-heptenoate, pH 7.5; read-out: Coumarin IC50

Row | Compound | IC50 [nM]
1 | O=C(O)c1ccc(CCCc2c(CCNS(=O)(=O)c3ccsc3)n(C(c3ccccc3)c3ccccc3)c3ccc(Cl)cc23)cc1 [Example 180, 4-[3-(1-benzhydryl-5-chloro-2-{2-[(thien-3-ylsulfonyl)amino]ethyl}-1H-indol-3-yl)propyl]benzoic acid] | 230
2 | O=C(O)c1ccc(OCCc2c(CCNS(=O)(=O)c3cccc(-c4ccccc4)c3)n(C(c3ccccc3)c3ccccc3)c3ccc(Cl)cc23)cc1 [Example 207, 4-[2-(1-benzhydryl-2-{2-[(1,1′-biphenyl-3-ylsulfonyl)amino]ethyl}-5-chloro-1H-indol-3-yl)ethoxy]benzoic acid] | 1400
3 | O=C(O)c1ccc(CCCc2c(CCNS(=O)(=O)Cc3ccccc3[N+](=O)[O-])n(C(c3ccccc3)c3ccccc3)c3ccc(Cl)cc23)cc1 [Example 56, 4-{3-[5-Chloro-1-(diphenylmethyl)-2-(2-{[(2-nitrobenzyl)sulfonyl]amino}ethyl)-1H-indol-3-yl]propyl}benzoic acid] | 130
4 | 4-{2-[1-benzhydryl-5-chloro-2-(2-{[(2,6-dimethylbenzyl)sulfonyl]amino}ethyl)-1H-indol-3-yl]ethoxy}benzoic acid [Example 279] | 160
5 | O=S(=O)(Cc1ccc(Cl)c(Cl)c1)NCCc1c(CCOc2ccc(-c3nn[nH]n3)cc2)c2cc(Cl)ccc2n1C(c1ccccc1)c1ccccc1 [Example 192, N-[2-(1-benzhydryl-5-chloro-3-{2-[4-(2H-tetraazol-5-yl)phenoxy]ethyl}-1H-indol-2-yl)ethyl]-1-(3,4-dichlorophenyl)methanesulfonamide] | < 3700
6 | O=C(O)c1ccc(OCCc2c(CCNS(=O)(=O)Cc3cccc(C(F)(F)F)c3)n(C(c3ccccc3)c3ccccc3)c3ccc(Cl)cc23)cc1 [Example 47, 4-(2-{1-benzhydryl-5-chloro-2-[2-({[3-(trifluoromethyl)benzyl]sulfonyl}amino)ethyl]-1H-indol-3-yl}ethoxy)benzoic acid] | 580
7 | O=C(O)c1ccc(OCCc2c(CCNS(=O)(=O)CCN3C[C@@H]4C[C@H]3CO4)n(C(c3ccccc3)c3ccccc3)c3ccc(Cl)cc23)cc1 [Example 251] | 1500
8 | O=C(O)c1ccc(OCCc2c(CCNS(=O)(=O)Cc3ccccc3)n(C(c3ccccc3)c3ccccc3)c3ccc(N4CCOCC4)cc23)cc1 [Example 33, 4-[2-(1-benzhydryl-2-{2-[(benzylsulfonyl)amino]ethyl}-5-morpholin-4-yl-1H-indol-′3-yl)ethoxy]benzoic acid] | 2900
9 | O=C(O)c1ccc(OCCc2c(CCNS(=O)(=O)c3ccccc3Cl)n(C(c3ccccc3)c3ccccc3)c3ccc(Cl)cc23)cc1 [Example 255, 4-{2-[1-benzhydryl-5-chloro-2-(2{[(2-chlorophenyl)sulfonyl]amino}ethyl)-1H-indol-3-yl]ethoxy}benzoic acid] | 500
10 | O=C(O)c1ccc(OCCc2c(CCNS(=O)(=O)c3ccccc3Br)n(C(c3ccccc3)c3ccccc3)c3ccc(Cl)cc23)cc1 [Example 165, 4-{2-[1-benzhydryl-2-(2-{[(2-bromophenyl)sulfonyl]amino}ethyl)-5-chloro-1H-indol-3-yl]ethoxy}benzoic acid] | 530
11 | CC(C)(C)c1ccccc1S(=O)(=O)NCCc1c(CCCc2ccc(C(=O)O)cc2)c2cc(Cl)ccc2n1C(c1ccccc1)c1ccccc1 [Example 236] | 85

Now from value to compound:

Row | IC50 [nM] | Compound
12 | 200 | CS(=O)(=O)c1ccccc1S(=O)(=O)NCCc1c(CCCc2ccc(C(=O)O)cc2)c2cc(Cl)ccc2n1C(c1ccccc1)c1ccccc1 [Example 204, 4-(3-{1-Benzhydryl-5-chloro-2-[2({[2-(methylsulfonyl)phenyl]sulfonyl}amino)ethyl]-1H-indol-3-yl}propyl)benzoic acid]
13 | 240 | COc1cccc(OC)c1S(=O)(=O)NCCc1c(CCCc2ccc(C(=O)O)cc2)c2cc(Cl)ccc2n1C(c1ccccc1)c1ccccc1 [Example 275, 4-{3-[1-benzhydryl-5-chloro-2-(2-{[(2,6-dimethoxyphenyl)sulfonyl]amino}ethyl)-1H-indol-3-yl]propyl}benzoic acid]
14 | 530 | O=C(O)c1ccc(OCCc2c(CCNS(=O)(=O)c3ccccc3Cl)n(C(c3ccccc3)c3ccccc3)c3ccc(Cl)cc23)cc1F [Example 190, 4-(2-{1-Benzhydryl-5-chloro-2-[2-(2-chloro-benzenesulfonylamino)-ethyl]-1H-indol-3-yl}-ethoxy)-2-fluoro-benzoic acid]
15 | 200 | O=C(O)CCc1ccc(S(=O)(=O)CCc2c(CCNS(=O)(=O)c3ccccc3Cl)n(C(c3ccccc3)c3ccccc3)c3ccc(Cl)cc23)cc1 [Example 259, 3-[4-({2-[1-benzhydryl-5-chloro-2-(2-{[(2-chlorophenyl)sulfonyl]amino}ethyl)-1H-indol-3-yl]ethyl}sulfonyl)phenyl]propanoic acid]
16 | 400 | O=C(O)c1ccc(OCCc2c(CCNS(=O)(=O)CSc3ccc(F)cc3F)n(C(c3ccccc3)c3ccccc3)c3ccc(Cl)cc23)cc1 [Example 288, 4-[2-(1-benzhydryl-5-chloro-2-{2-[({[(2,4-difluorophenyl)thio]methyl}sulfonyl)amino]ethyl}-1H-indol-3-yl)ethoxy]benzoic acid]
17 | 400 | O=C(O)c1ccc(OCCc2c(CCNS(=O)(=O)c3cccc(C(F)(F)F)c3)n(C(c3ccccc3)c3ccccc3)c3ccc(Cl)cc23)cc1 [Example 219, 4-(2-{1-benzhydryl-5-chloro-2-[2-({[3-(trifluoromethyl)phenyl]sulfonyl}amino)ethyl]-1H-indol-3-yl}ethoxy)benzoic acid]
18 | 1200 | COC[C@@H]1CCCN1CCS(=O)(=O)NCCc1c(CCOc2ccc(C(=O)O)cc2)c2cc(Cl)ccc2n1C(c1ccccc1)c1ccccc1 [Example 248, 4-[2-(1-benzhydryl-5-chloro-2-{2-[({2-[(2S)-2-(methoxymethyl)pyrrolidin-1-yl]ethyl}sulfonyl)amino]ethyl}-1H-indol-3-yl)ethoxy]benzoic acid]
19 | 260 | O=C(O)c1ccc(CCCc2c(CCNS(=O)(=O)c3ccccc3Cl)n(C(c3ccccc3)c3ccccc3)c3ccc(Cl)cc23)cc1 [Example 254, 4-{3-[1-benzhydryl-5-chloro-2-(2-{[(2-chlorophenyl)sulfonyl]amino}ethyl)-1H-indol-3-yl]propyl}benzoic acid]
20 | 500 | O=C(O)c1ccc(OCCc2c(CCNS(=O)(=O)c3ccc(C(F)(F)F)cc3)n(C(c3ccccc3)c3ccccc3)c3ccc(Cl)cc23)cc1 [Example 229, 4-(2-{1-benzhydryl-5-chloro-2-[2-({[4-(trifluoromethyl)phenyl]sulfonyl}amino)ethyl]-1H-indol-3-yl}ethoxy)benzoic acid]
21 | 1500 | O=C(O)c1ccc(OCCc2c(CCNS(=O)(=O)CCN3CCC(O)CC3)n(C(c3ccccc3)c3ccccc3)c3ccc(Cl)cc23)cc1 [Example 123, 4-[2-(1-Benzhydryl-5-chloro-2-{2-[2-(4-hydroxy-piperidin-1-yl)-ethanesulfonylamino]-ethyl}-1H-indol-3-yl)-ethoxy]-benzoic acid]
22 | 600 | O=C(O)c1ccc(OCCc2c(CCNS(=O)(=O)c3cccc4nonc34)n(C(c3ccccc3)c3ccccc3)c3ccc(Cl)cc23)cc1 [Example 182, 4-(2-{1-Benzhydryl-2-[2-(benzo[1,2,5]oxadiazole-4-sulfonylamino)-ethyl]-5-chloro-1H-indol-3-yl}-ethoxy)benzoic acid]
